From patent publication US7803930B2, “Antisense modulation of apolipoprotein B-expression” (Isis Pharmaceuticals, Inc., priority 2002, dated 2010)
In the oligonucleotide strings, read from the 5' end, every base follows the letter of its sugar. An asterisk marks phosphorothioate; unmarked linkages are phosphodiester. Other units and linkages are bracketed, terminal groups are in braces. A string of capitals states the bases alone. e = 2'-O-(2-methoxyethyl) (MOE); [5mC] = 5-methylcytosine; d = 2'-deoxy (DNA)

System: rabbit apolipoprotein B mRNA
Experiment: Inhibition of rabbit apolipoprotein B mRNA levels in primary rabbit hepatocytes, real-time PCR
Assay type: cell-based
Parameters: % INHIB of rabbit apolipoprotein B mRNA levels: concentration or dose not given beside the values
Conditions: for Percent Inhibition of rabbit apolipoprotein B mRNA levels: averages from two experiments
Source text: Primary rabbit hepatocytes were purchased from Invitro Technologies (Gaithersburg, Md.) and maintained in Dulbecco's modified Eagle's medium (Gibco). When purchased, the cells had been seeded into 96-well plates for use in RT-PCR analysis and were confluent.
In accordance with the present invention, a series of oligonucleotides was designed to target different regions of rabbit apolipoprotein B, using published sequences (GenBank accession number X07480.1, incorporated herein as SEQ ID NO: 808, GenBank accession number M17780.1, incorporated herein as SEQ ID NO: 809, and a sequence was derived using previously described primers (Tanaka, Journ. Biol. Chem., 1993,268, 12713-12718) representing an mRNA of the rabbit apolipoprotein B, incorporated herein as SEQ ID NO: 810). “Target site” indicates the first (5′-most) nucleotide number on the particular target sequence to which the oligonucleotide binds. All compounds in Table 21 are chimeric oligonucleotides (“gapmers”) 20 nucleotides in length, composed of a central “gap” region consisting of ten 2′-deoxynucleotides, which is flanked on both sides (5′ and 3′ directions) by five-nucleotide “wings”. The wings are composed of 2′-methoxyethyl (2′-MOE)nucleotides. The internucleoside (backbone) linkages are phosphorothioate (P═S) throughout the oligonucleotide. All cytidine residues are 5-methylcytidines. The compounds were analyzed for their effect on rabbit apolipoprotein B mRNA levels in primary rabbit hepatocytes by quantitative real-time PCR as described in other examples herein. Primary rabbit hepatocytes were treated with 150 nM of the compounds in Table 21. For rabbit apolipoprotein B the PCR primers were: • forward primer: AAGCACCCCCAATGTCACC (SEQ ID NO: 811) • reverse primer: […] (SEQ ID NO: 812) and the PCR probe was: FAM-[…]-TAMRA (SEQ ID NO: 813) where FAM (PE-Applied Biosystems, Foster City, Calif.) is the fluorescent reporter dye) and TAMRA (PE-Applied Biosystems, Foster City, Calif.) is the quencher dye. Data are averages from two experiments. If present, “N.D.” indicates “no data”.
In accordance with the present invention, a subset of the antisense oligonuclotides in Example 42 was further investigated in dose-response studies. Treatment doses were 10, 50, 150 and 300 nM. ISIS 233160 (SEQ ID NO: 824), ISIS 233166 (SEQ ID NO: 830), ISIS 233172 (SEQ ID NO: 835), ISIS 233175 (SEQ ID NO: 838), and ISIS 233183 (SEQ ID NO: 846) were analyzed for their effect on rabbit apolipoprotein B mRNA levels in primary rabbit hepatocytes by quantitative real-time PCR as described in other examples herein.

Substance | % INHIB of rabbit apolipoprotein B mRNA levels | further results
233190 (antisense eA*e[5mC]*eT*eT*eG*dA*dG*d[5mC]*dG*dT*dG*d[5mC]*d[5mC]*d[5mC]*dT*e[5mC]*eT*eA*eA*eT) [compound 233190] | 69% | 
233164 (antisense e[5mC]*eA*eT*eA*eT*dG*dT*d[5mC]*dT*dG*dA*dA*dG*dT*dT*eG*eA*eG*eA*e[5mC]) [compound 233164] | 8% | 
233177 (antisense eG*eT*eA*eG*e[5mC]*dT*dT*dT*d[5mC]*d[5mC]*d[5mC]*dA*dT*d[5mC]*dT*eA*eG*eG*e[5mC]*eT) [compound 233177] | 0% | 
233183 (antisense e[5mC]*eA*eG*eT*eG*dT*dA*dA*dT*dG*dA*dT*d[5mC]*dG*dT*eT*eG*eA*eT*eT) [compound 233183] | 88% | Percent Inhibition of rabbit apolipoprotein B mRNA levels (10 nM): 30%; Percent Inhibition of rabbit apolipoprotein B mRNA levels (50 nM): 71%; Percent Inhibition of rabbit apolipoprotein B mRNA levels (150 nM): 81%; Percent Inhibition of rabbit apolipoprotein B mRNA levels (300 nM): 80%
233179 (antisense eA*eT*eG*eT*eT*dG*d[5mC]*d[5mC]*d[5mC]*dA*dT*dG*dG*d[5mC]*dT*eG*eG*eA*eA*eT) [compound 233179] | 65% | 
233162 (antisense eG*eT*eT*eG*e[5mC]*d[5mC]*dT*dT*dG*dT*dG*dA*dG*d[5mC]*dA*eG*e[5mC]*eA*eG*eT) [compound 233162] | 0% | 
233149 (antisense eT*eG*e[5mC]*eT*eT*dG*dG*dA*dG*dA*dA*dG*dG*dT*dA*eA*eG*eA*eT*e[5mC]) [compound 233149] | 0% | 
233185 (antisense e[5mC]*eA*eA*e[5mC]*eA*dA*dT*dG*dT*d[5mC]*dT*dG*dA*dT*dT*eG*eG*eT*eT*eA) [compound 233185] | 73% | 
233170 (antisense eT*eT*eG*eA*eT*d[5mC]*dT*dA*dT*dA*dA*dT*dA*d[5mC]*dT*eA*eG*e[5mC]*eT*eA) [compound 233170] | 23% | 
233166 (antisense eG*eG*eA*eT*e[5mC]*dA*d[5mC]*dA*dT*dG*dA*d[5mC]*dT*dG*dA*eA*eT*eG*e[5mC]*eT) [compound 233166] | 82% | Percent Inhibition of rabbit apolipoprotein B mRNA levels (10 nM): 66%; Percent Inhibition of rabbit apolipoprotein B mRNA levels (50 nM): 81%; Percent Inhibition of rabbit apolipoprotein B mRNA levels (150 nM): 79%; Percent Inhibition of rabbit apolipoprotein B mRNA levels (300 nM): 73%
233169 (antisense eG*e[5mC]*eT*e[5mC]*eA*dT*dT*d[5mC]*dT*d[5mC]*d[5mC]*dA*dG*d[5mC]*dA*eT*e[5mC]*eA*eG*eG) [compound 233169] | 14% | 
233182 (antisense e[5mC]*eT*eT*eG*eA*dT*dA*d[5mC]*dT*dT*dG*dG*dT*dA*dT*e[5mC]*e[5mC]*eA*e[5mC]*eA) [compound 233182] | 59% | 
233157 (antisense eA*eG*eT*eA*eG*dT*dT*dA*dG*dT*dT*dT*d[5mC]*dT*d[5mC]*e[5mC]*eT*eT*eG*eG) [compound 233157] | 0% | 
233165 (antisense eG*eT*eA*eG*eA*dT*dA*d[5mC]*dT*d[5mC]*d[5mC]*dA*dT*dT*dT*eT*eG*eG*e[5mC]*e[5mC]) [compound 233165] | 0% | 
233188 (antisense eT*eT*eG*eT*eA*d[5mC]*dT*dG*dT*dA*dG*dT*dG*d[5mC]*dA*eT*e[5mC]*eA*eA*eT) [compound 233188] | 74% | 
233184 (antisense eT*eA*eA*eA*eG*dT*d[5mC]*d[5mC]*dA*dG*d[5mC]*dA*dT*dT*dG*eG*eT*eA*eT*eT) [compound 233184] | 69% | 
233161 (antisense eT*eT*eG*eG*e[5mC]*dA*dT*dT*dA*dT*d[5mC]*d[5mC]*dA*dA*dT*eG*e[5mC]*eA*eG*eT) [compound 233161] | 28% | 
233189 (antisense eG*e[5mC]*e[5mC]*eT*e[5mC]*dA*dA*dT*d[5mC]*dT*dG*dT*dT*dG*dT*eT*eT*e[5mC]*eA*eG) [compound 233189] | 46% | 

Substance | % INHIB of rabbit apolipoprotein B mRNA levels | further results
233168 (antisense eG*eG*eA*e[5mC]*eT*dG*dT*dA*d[5mC]*d[5mC]*dT*d[5mC]*dA*dA*dG*e[5mC]*eT*eG*eG*eT) [compound 233168] | 0% | 
233167 (antisense eT*e[5mC]*eA*eA*eG*d[5mC]*dT*dG*dG*dT*dT*dG*dT*dT*dG*e[5mC]*eA*e[5mC]*eT*eG) [compound 233167] | 28% | 
233154 (antisense e[5mC]*eA*eA*eT*eT*dG*dA*dA*dT*dG*dT*dA*d[5mC]*dT*d[5mC]*eA*eG*eA*eT*eA) [compound 233154] | 18% | 
233181 (antisense eG*e[5mC]*eA*e[5mC]*e[5mC]*d[5mC]*dA*dG*dA*dA*dT*d[5mC]*dA*dT*dG*eG*e[5mC]*e[5mC]*eT*eG) [compound 233181] | 0% | 
233152 (antisense eT*e[5mC]*eA*eG*e[5mC]*dA*d[5mC]*dG*dT*dA*dG*d[5mC]*dA*dA*dT*eG*e[5mC]*eA*eT*eT) [compound 233152] | 0% | 
233163 (antisense eA*eT*eT*eG*eT*dG*dA*dG*dT*dG*dG*dA*dG*dA*dT*eA*e[5mC]*eT*eT*e[5mC]) [compound 233163] | 80% | 
233156 (antisense e[5mC]*eA*e[5mC]*eT*eG*dG*dA*dA*dA*d[5mC]*dT*dT*dG*dT*d[5mC]*eT*e[5mC]*eT*e[5mC]*e[5mC]) [compound 233156] | 23% | 
233151 (antisense eT*eA*eA*eT*e[5mC]*dA*dT*dT*dA*dA*d[5mC]*dT*dT*dG*d[5mC]*eT*eG*eT*eG*eG) [compound 233151] | 20% | 
233155 (antisense eA*e[5mC]*e[5mC]*eT*e[5mC]*dA*dG*dT*dG*dA*d[5mC]*dT*dT*dG*dT*eA*eA*eT*e[5mC]*eA) [compound 233155] | 47% | 
233160 (antisense eA*eT*eT*eG*eG*dA*dA*dT*dA*dA*dT*dG*dT*dA*dT*e[5mC]*e[5mC]*eA*eG*eG) [compound 233160] | 81% | Percent Inhibition of rabbit apolipoprotein B mRNA levels (10 nM): 33%; Percent Inhibition of rabbit apolipoprotein B mRNA levels (50 nM): 67%; Percent Inhibition of rabbit apolipoprotein B mRNA levels (150 nM): 74%; Percent Inhibition of rabbit apolipoprotein B mRNA levels (300 nM): 80%
233173 (antisense eT*eT*eG*eT*eG*dT*dT*d[5mC]*d[5mC]*dT*dT*dG*dA*dA*dG*e[5mC]*eG*eG*e[5mC]*e[5mC]) [compound 233173] | 3% | 
233153 (antisense eG*e[5mC]*e[5mC]*eT*eG*dA*dT*dA*d[5mC]*dT*d[5mC]*dA*dG*d[5mC]*dA*e[5mC]*eG*eT*eA*eG) [compound 233153] | 0% | 
233191 (antisense eG*eA*eA*eA*eT*dG*dG*dA*dA*dT*dT*dG*dT*dA*dG*eT*eT*e[5mC]*eT*e[5mC]) [compound 233191] | 31% | 
233150 (antisense eG*e[5mC]*eG*eT*eT*dG*dT*d[5mC]*dT*d[5mC]*d[5mC]*dG*dA*dT*dG*eT*eT*e[5mC]*eT*eG) [compound 233150] | 20% | 
233176 (antisense eG*eA*eA*eA*eT*d[5mC]*dT*dG*dG*dA*dA*dG*dA*dG*dA*eG*eA*e[5mC]*e[5mC]*eT) [compound 233176] | 62% | 
233159 (antisense eT*e[5mC]*eA*eG*eT*dG*d[5mC]*d[5mC]*d[5mC]*dA*dA*dG*dA*dT*dG*eT*e[5mC]*eA*eG*e[5mC]) [compound 233159] | 0% | 
233186 (antisense eG*eA*eA*eG*eA*dG*dG*dA*dA*dG*dA*dA*dA*dG*dG*eA*eT*eA*eT*eG) [compound 233186] | 60% | 
233180 (antisense eA*eA*eG*eA*eT*dG*d[5mC]*dA*dG*dT*dA*d[5mC]*dT*dA*d[5mC]*eT*eT*e[5mC]*e[5mC]*eA) [compound 233180] | 13% | 
